The test system of series [1] is HL-1 mouse heart cells. The series is described as follows: TUNEL assay of cell death induced by hypoxia in HL-1 cells. To be noted: M4N at 5-20 μM; 6 hour hypoxia (0.5% oxygen) followed with 18 hour normoxia; FIG. 1. The class given is cell-based. The protocol: Cell Culture. HL-1 mouse heart cell line was a kind gift from Dr. Claycomb (LSU Health Science Centers, New Orleans La.) (Proc. Natl. Acad. Sci. U.S.A., 95: 2979-84 (1998)). HL-1 cells were cultured in Claycomb medium (Sigma, Saint Louis, Mo.) supplemented with FBS (10%), Norepinephrine (0.1 mM), L-Glutamine (2 mM), penicillin (100 units/ml) and streptomycin (100 μg/ml). Drugs were dissolved in dimethyl sulfoxide at the final concentrations in the medium less than 0.1%. When the cells were indicated to be cultured under hypoxic conditions, the cells were incubated at the oxygen concentration of 0.5% in the hypoxic chamber (BioSpherix Ltd, Lacona, N.Y.). Cell death assay. Terminal deoxynucleotidyl transferase dUTP nick end labeling (TUNEL) assay was conducted by using TUNEL apoptosis detection kits (Upstate, Temecula, Calif.), with some modifications. The cells were cultured in 12-well microwell culture dishes (Corning Inc., Corning, N.Y.). After the treatment, both the cells floating in the tissue culture medium and those attached to the bottoms of wells were collected together into plastic tubes. […] For the hypoxia treatment the cells were cultured under 0.5% oxygen concentration in a hypoxic chamber for 6 hours and returned the cells back to normoxic condition in a normal culture chamber, and then cell death was measured 18 hours later. […]

Series [2] concerns HL-1 mouse heart cells. The series is described as follows: Trypan blue exclusion assay of cell death under hypoxia or normoxia in HL-1 cells. Format: cell-based. To be noted: M4N at 20 μM, FIG. 2. The protocol:
Cell Culture. HL-1 mouse heart cell line was a kind gift from Dr. Claycomb (LSU Health Science Centers, New Orleans La.) (Proc. Natl. Acad. Sci. U.S.A., 95: 2979-84 (1998)). HL-1 cells were cultured in Claycomb medium (Sigma, Saint Louis, Mo.) supplemented with FBS (10%), Norepinephrine (0.1 mM), L-Glutamine (2 mM), penicillin (100 units/ml) and streptomycin (100 μg/ml). Drugs were dissolved in dimethyl sulfoxide at the final concentrations in the medium less than 0.1%. When the cells were indicated to be cultured under hypoxic conditions, the cells were incubated at the oxygen concentration of 0.5% in the hypoxic chamber (BioSpherix Ltd, Lacona, N.Y.). For the Trypan blue exclusion assay, the cells were washed with PBS (−) once and resuspended in PBS (−) again. […] In about 5 to 15 minutes the numbers of both the cells without staining and the cells with staining were counted. The percentages of the number of the cells with staining to the total cell number (which equals to the number of the cells with staining and that of the cells without staining) were calculated. […] For the hypoxia treatment the cells were cultured under 0.5% oxygen concentration in a hypoxic chamber for 6 hours and returned the cells back to normoxic condition in a normal culture chamber, and then cell death was measured 18 hours later. […]

Series [3] deals with BNIP3. The series is described as follows: BNIP3 expression by western blotting in HL-1 cells under hypoxia. The class given is cell-based, mouse. To be noted: M4N at 10-40 μM; hypoxia for 6 hours then normoxia for 18 hours; FIG. 3. On the procedure: Cell Culture. HL-1 mouse heart cell line was a kind gift from Dr. Claycomb (LSU Health Science Centers, New Orleans La.) (Proc. Natl. Acad. Sci. U.S.A., 95: 2979-84 (1998)). HL-1 cells were cultured in Claycomb medium (Sigma, Saint Louis, Mo.) supplemented with FBS (10%), Norepinephrine (0.1 mM), L-Glutamine (2 mM), penicillin (100 units/ml) and streptomycin (100 μg/ml). Drugs were dissolved in dimethyl sulfoxide at the final concentrations in the medium less than 0.1%. When the cells were indicated to be cultured under hypoxic conditions, the cells were incubated at the oxygen concentration of 0.5% in the hypoxic chamber (BioSpherix Ltd, Lacona, N.Y.). Western blotting. After cells had been grown in […] flasks and treated with reagents, the cells were washed with PBS (−) three times and suspended in RIPA buffer (150 mM NaCl, 50 mM Tris-HCl (pH 8.0), 0.1% SDS, 1% NP40, and 0.5% deoxycholate) supplemented with protease inhibitor cocktail (Calbiochem, San Diego, Calif.). The sample volumes were adjusted by the total protein amount. Protein assay was performed by Bio-Rad Protein Assay (Bio-Rad Laboratories, Inc. Hercules, Calif.). […] The signals were detected by western blot chemiluminescence reagent plus (New England Nuclear Life Science Products, Boston, Mass.). […]
(In western blotting, separated proteins are transferred to a membrane and probed.)

Series [4] concerns mitochondrial permeability transition pore (mPTP). The series is described as follows: Mitochondrial permeability transition pore (mPTP) openings by confocal microscopy in HL-1 cells. Format: cell-based, mouse. The settings on record: M4N at 5-20 μM, hypoxia 6 hours then normoxia 8 hours, data not shown. The protocol: Measurement of mitochondrial permeability transition pore (mPTP) openings. The mPTP was measured by Image-iT LIVE Mitochondria Transition Pore Assay Kit (Molecular Probes, Eugene Oreg.). The cells were first washed with Hank's Balanced Salt Solution (HBSS) with sodium bicarbonate, calcium, and magnesium that also included HEPES (10 mM), L-glutamine (2 mM) and succinate (100 μM) to support healthy mitochondrial function (modified HBSS). The cells were then labeled with calcein-AM (1.0 μM) and MitoTracker Red CMSRos dye ([…]) in modified HBSS with […] CoCl2 for 15 minutes. After the medium was changed to the normal HL-1 culture medium, the cells were treated with M4N at various concentrations (0, 5, 10, 20, 40, and 80 μM). The cells were incubated under hypoxia for 6 hours, followed with under normoxia for 8 hours. After the cells were washed with modified HBSS, they were examined by B29/Zeiss LSM 510 META laser confocal microscope (Carl Zeiss, Jena, Germany) for calcein at FITC settings and for MitoTracker at rhodamine settings.

Series [5] relates to HL-1 mouse heart cells. The series is described as follows: UCN-01-induced cell death in HL-1 cells, Trypan blue exclusion assay. The class given is cell-based. The settings on record: M4N around 20 μM; UCN-01 (0.2 μM) for 24 hours; FIG. 4. The protocol: FIG. 4 depicts the effect of M4N on cell death induced by UCN-01 treatment in HL-1 mouse heart cells. The cells were treated with M4N followed with UCN-01 (0.2 μM) treatment for 24 hours. The cell death was measured with Trypan Blue exclusion assay. The asterisk indicates a statistically significant difference by t-test at the error rate of less than 2%. For the Trypan blue exclusion assay, the cells were washed with PBS (−) once and resuspended in PBS (−) again. One part of the resuspended cell solution was mixed with one part of 0.4% Trypan blue solution (Sigma). In about 5 to 15 minutes the numbers of both the cells without staining and the cells with staining were counted. The percentages of the number of the cells with staining to the total cell number (which equals to the number of the cells with staining and that of the cells without staining) were calculated. Effect of M4N on UCN-01-inducing cell death. Next, the effect of M4N on the cell death induced by UCN-01, an anticancer drug, in HL-1 cells (FIG. 4) was examined.

In series [6] the test system is BNIP3. The series is described as follows: BNIP3 expression in human cancer cells (LNCaP, PC3, MCF-7, HepG2). Format: cell-based.
A further series deals with LNCAP cells. The series is described as follows: Mitochondrial metabolism and membrane potential in LNCaP cells. Format: cell-based, human. The settings on record: data not shown.
The conditions of series [7]: numerous clinical trials as an anticancer drug; cited from earlier work.

In the case of `COc1ccc(C[C@@H](C)[C@@H](C)Cc2ccc(OC)c(OC)c2)cc1OC` [M4N, tetra-o-methyl nordihydroguaiaretic acid], in the series with HL-1 mouse heart cells [1], the “TUNEL-positive cell death induced by hypoxia” value is on record as “reduced the cell death induced by hypoxia”. Further, the “cell death induced by hypoxia, Trypan blue exclusion assay” value with HL-1 mouse heart cells [2] (either 6 hour hypoxia with additional 18 hour normoxia or 24 hour hypoxia) was “reduced the cell death induced by hypoxia”. The “cell death under normoxic condition, Trypan blue exclusion assay” value with HL-1 mouse heart cells [2] (normoxic condition, compared with the control) is “reduced cell death compared with the control”. The “BNIP3 expression (western blotting)” value with BNIP3 [3] is on record as “suppressed”. Also, the “mPTP openings induced by hypoxia” value in series [4] is reported as “suppressed mPTP openings induced by hypoxia”. For the same compound, in the series on HL-1 mouse heart cells [5], the “UCN-01-mediated cell death, Trypan blue exclusion assay” value is given as “reduced UCN-01-mediated cell death”. Also, in the series on BNIP3 [6] (LNCaP human prostate cancer cells, internal data not shown), the “BNIP3 expression at the transcription level” value is given as “blocks BNIP3 expression”. Also, the “expression of BNIP3 in various cancer cells” value in the series with BNIP3 [6] (LNCaP, PC3, MCF-7, HepG2 cells, previously found) is given as “reduced the expression of BNIP3”. In addition, in the series on LNCAP cells, the “mitochondrial membrane potential (ΔΨm)” value is listed as “induce hyperpolarization of ΔΨm” and the mitochondrial metabolism entry is reported as “suppress mitochondrial metabolism”. Further, the “toxicity and safety in clinical trials” value in series [7] is “very nontoxic and safe drug”.

The values are drawn from US9456995B2, “Methods for inhibition of BNIP3 and prevention and treatment of ischemia reperfusion injury by tetra-O-methyl nordihydroguaiaretic acid” (THE JOHNS HOPKINS UNIVERSITY, priority 2012, dated 2016).
